Measured values as given in patent publication US11337944B2, “Method of treating colorectal cancers using a PKC inhibitor” (UNIVERSITY OF SOUTH FLORIDA, priority 2016, dated 2022).
“Also recorded” adds a separate entry of the source. Where two headings read alike, the source gives them in different places.

Tests used:
[1] = target: T1, PKC-ζ (Homo sapiens, UniProt Q05513); settings: cited from earlier work
T1 construct: harvested and whole cell extracts were prepared; endogenous in cells; host or cells: HT-29
T1 sequence (Q05513 1-592): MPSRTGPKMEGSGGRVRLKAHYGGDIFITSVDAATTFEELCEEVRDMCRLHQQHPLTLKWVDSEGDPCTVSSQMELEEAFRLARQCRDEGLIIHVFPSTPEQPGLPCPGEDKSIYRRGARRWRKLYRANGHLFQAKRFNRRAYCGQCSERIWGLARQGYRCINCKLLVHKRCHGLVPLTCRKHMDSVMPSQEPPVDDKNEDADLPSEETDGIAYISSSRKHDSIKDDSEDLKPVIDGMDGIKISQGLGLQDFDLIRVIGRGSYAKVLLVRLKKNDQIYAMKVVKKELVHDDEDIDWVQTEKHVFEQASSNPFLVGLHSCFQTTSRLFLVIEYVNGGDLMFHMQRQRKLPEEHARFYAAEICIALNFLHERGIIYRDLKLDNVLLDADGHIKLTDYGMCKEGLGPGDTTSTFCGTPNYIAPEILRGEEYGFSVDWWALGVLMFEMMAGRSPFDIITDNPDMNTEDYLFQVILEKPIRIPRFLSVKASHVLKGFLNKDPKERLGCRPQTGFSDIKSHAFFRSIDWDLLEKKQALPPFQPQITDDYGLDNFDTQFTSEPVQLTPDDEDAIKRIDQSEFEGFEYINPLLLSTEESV

[2] = tested on: HT-29 colon cancer cell line; experiment: HT-29 colon cancer cell proliferation, viable cell count (Tryphan blue exclusion, scepter); assay type: cell-based; settings: for HT-29 cell proliferation at 0.25 μM / HT-29 cell proliferation at 1.5 μM: after three days of treatment; for effect on HT-29 cell proliferation with concentration: 24-72 hours, several concentrations; for IC50: HT-29, three days of treatment, read-out: decrease of growth of HT-29 cells by 50 percent (IC50)
Protocol: (§1) The colon cancerous cell line, HT-29 and normal colon epithelial cells, CCD18CO were obtained from American Type Tissue Culture Collection. The HT-29 cells and CCD18CO cells were subculture and maintained in T75 flasks containing McCoy's media and Eagle's Minimum Essential Media respectively, both of the flasks were supplemented with 10% FBS (Fetal Bovine Serum) and 1% antibiotics (Penicillin 10 U/ml and streptomycin 10 mg/ml). Cells were incubated at 37° C. and 5% CO2. After few days of incubation following subculture, cells were used at 70-80% confluency for the experiment.
Cells (3.0×10^4/well) were grown as monolayer on 6 wells plate. […] Cells are then washed (2 ml 2× DPBS buffer), trypsinized, resuspended in McCoy's 5A media and counted with hemocytometer, Scepter & MTT assay.
After starting treatment, viable cells were counted at each 24 hours interval using Tryphan blue exclusion assay and scepter. The data represents n=4 independent experiments.
HT-29 cells were treated with five different concentrations of DNDA for 24-72 hours. After starting treatment, viable cells were counted at each 24 hours interval using Tryphan blue exclusion assay and scepter. The data represents n=4 independent experiments.
HT-29 cells were treated with five different concentrations of ICA-1 for 24-72 hours. After starting treatment, viable cells were counted at each 24 hours interval using Tryphan blue exclusion assay and scepter. The data represents n=4 independent experiments.
HT-29 cells were treated with four different concentrations of ζ-Stat for 24-72 hours. After starting treatment, viable cells were counted at each 24 hours interval using Tryphan blue exclusion assay and scepter. The data represents n=4 independent experiments.

[3] = target: T2, PKC-ι (Homo sapiens, UniProt P41743); settings: cited from earlier work
T2 construct: harvested and whole cell extracts were prepared; endogenous in cells; host or cells: HT-29
T2 sequence (P41743 1-596): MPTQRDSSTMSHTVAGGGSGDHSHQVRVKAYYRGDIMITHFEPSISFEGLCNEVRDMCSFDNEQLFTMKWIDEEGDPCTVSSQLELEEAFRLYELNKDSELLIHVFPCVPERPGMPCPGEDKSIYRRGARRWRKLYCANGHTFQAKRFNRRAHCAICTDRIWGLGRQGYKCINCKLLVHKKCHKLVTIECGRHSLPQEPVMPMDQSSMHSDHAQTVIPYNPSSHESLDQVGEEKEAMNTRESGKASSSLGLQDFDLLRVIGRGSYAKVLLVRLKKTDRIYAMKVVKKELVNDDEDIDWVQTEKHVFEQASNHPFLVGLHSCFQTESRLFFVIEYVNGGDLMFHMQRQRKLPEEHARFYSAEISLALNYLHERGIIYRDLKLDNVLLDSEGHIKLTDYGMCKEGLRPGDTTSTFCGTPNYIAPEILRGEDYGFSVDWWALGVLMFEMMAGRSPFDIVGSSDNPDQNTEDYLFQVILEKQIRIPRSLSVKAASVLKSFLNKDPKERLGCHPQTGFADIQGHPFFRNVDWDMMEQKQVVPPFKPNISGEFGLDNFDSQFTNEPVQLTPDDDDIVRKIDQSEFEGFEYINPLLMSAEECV

[4] = tested on: CCD18CO normal colorectal cells; experiment: Western blot of survival and apoptotic proteins in CCD18CO normal cells; assay type: cell-based; settings: 7 μM, 72 hours, immunoblot
Protocol: (§2) CCD18CO cells were treated with 7 μM ICA-I or 7 μM ζ-Stat, respectively, for 72 hours, harvested and whole cell lysates were prepared. Equal amounts (40 μg) of protein were loaded on SDS-PAGE followed by immunoblotting for PKC-ι, PKC-ζ, Caspase-3, BCL-XL, and β-actin to see the effect of specific aPKC inhibition on survival and apoptotic proteins. Data represents n=3 independent experiments.

[5] = target: T2, PKC-ι; experiment: Western blot of PKC-ι expression and phosphorylation in HT-29 cells; assay type: cell-based; settings: HT-29, 72 hours, increasing concentrations, immunoblot
Protocol: (§3) Cells were cultured (9.0×10^4) in 100 mm cell culture flasks. […] Equal volume of sterile water (vehicle control) as the volume of drug was added in the control also. Treatment was continued for three consecutive days. Total cell-lysates were prepared and subjected to western blot analysis for aPKC analysis.
(§4) Because PKC-ι and PKC-ζ are homologous (84%) in terms of amino acids sequence of their catalytic domain [7], the specificity of the effect of ζ-Stat on PKC-ζ was tested by performing western blot analysis. HT-29 colorectal cancerous cells were treated with seven different concentrations of ζ-Stat for 72 hours, harvested and whole cell extracts were prepared. Equal amounts (40 μg) of protein were loaded on SDS-PAGE followed by immunoblotting for pPKC-ι(T555), PKC-ι, pPKC-ζ(T410), PKC-ζ, pAKT(S473) and β-actin to examine the effect of ζ-Stat on those protein levels. Data represents n=3 independent observations.

[6] = tested on: HT-29 colorectal cancer cells; experiment: Western blot of survival and apoptotic proteins (Caspase-3, BCL-XL, Survivin) in HT-29 cells; assay type: cell-based; settings: HT-29, 7 μM, 72 hours, immunoblot
Protocol: as §2, with “HT-29 colorectal cancer” for “CCD18CO”, “ζ-Stat” for “ζ-Stat, respectively,”, “for” for “for PKC-ι, PKC-ζ,”, “BCL-XL, Survivin” for “BCL-XL,”, “determine” for “see”, “effects” for “effect”

[7] = target: T1, PKC-ζ; experiment: Western blot of PKC-ζ expression and phosphorylation in HT-29 cells; assay type: cell-based; settings: HT-29, 72 hours, increasing concentrations, immunoblot
Protocol: as §3, §4

[8] = tested on: CCD18CO normal colon epithelial cell line; experiment: MTT assay on CCD18CO normal colon epithelial cells; assay type: cell-based
Protocol: as §1
To establish the efficacy of ζ-Stat as a specific inhibitor of PKC-ζ, the effect of ζ-Stat on CCD18CO normal colon epithelial cell line was tested. CCD18CO normal epithelial cell line cells were treated with four different concentrations of ζ-Stat for three consecutive days followed by incubation with MTT reagent and taking absorbance reading at each half an hour interval for three hours at 577 nm using microplate reader. The data represents n=3 independent experiments.
The percentage of inhibition of CCD18C0 cell growth was measured after three hours of MTT incubation. […] The data represents n=3 independent replicates (FIG. 19).

SMILES: Nc1c(S(=O)(=O)O)cc2cc(S(=O)(=O)O)ccc2c1N [DNDA, 3,4, diamino-2,7-naphthalene disulfonic acid]
- inhibition of PKC-ζ [1]: about 80%
- HT-29 cell proliferation at 0.25 μM [2]: slight decrease in proliferation
- HT-29 cell proliferation at 1.5 μM [2]: dramatic decrease in proliferation
- effect on HT-29 cell proliferation with concentration [2]: decrease colon cancer cell proliferation in a dose-dependent manner
- IC50 [2]: ~780 nM
- inhibition of PKC-ι [3]: about 20%

SMILES: NC(=O)c1ncn(C2CC(COP(=O)(O)O)C(O)C2O)c1N (stereo not drawn) [ICA-1, [4-(5-amino-4-carbamoylimidazol-1-yl)-2,3-dihydroxycyclopentyl] methyl dihydrogen phosphate]
- HT-29 cell proliferation at 0.25 μM [2]: slight increase in cell proliferation
- HT-29 cell proliferation at 1.5 μM [2]: dramatic decrease in cell proliferation
- effect on HT-29 cell proliferation with concentration [2]: decrease colon cancer cell proliferation in a dose-dependent manner
- IC50 [2]: ~950 nM
- toxicity to normal epithelial cells CCD18CO [4]: not toxic

SMILES: O=S(=O)(O)c1cc(O)c2c(S(=O)(=O)O)cc(S(=O)(=O)O)cc2c1 [ζ-Stat, 8-hydroxy-1,3,6-naphthalenetrisulfonic acid]
- effect on PKC-ι [5]: without affecting PKC-ι; also recorded: specifically inhibits PKC-ζ not PKC-ι
- level of pro-survival proteins [6]: decreases the level of pro-survival proteins
- HT-29 cell proliferation at 1.5 μM [2]: dramatic decrease in cell proliferation
- effect on HT-29 cell proliferation with concentration [2]: inhibits colon cancer cell proliferation in a dose-dependent manner
- IC50 ([2]; Homo sapiens, 72 h): ~1400 nM
- inhibition of HT-29 cells ([2]; treatment over three days): about 60%
- level / phosphorylation of PKC-ζ [7]: decrease the levels of total and phosphorylated PKC-ζ; also recorded: selective decrease in the phosphorylation of PKC-ζ
- effect on normal colon epithelial cells CCD18CO (cell number / toxicity) ([8]; 1.0-3.0 μM, three consecutive days, MTT): not toxic; also recorded: did not change
- percent inhibition of CCD18CO cell growth ([8]; after three hours of MTT incubation): less than 10%
- toxicity to normal epithelial cells CCD18CO [4]: not toxic
